How the values were obtained:
scar = experiment: Patients with scar, topical solution with dimethyl sulfoxide (Example 13); type: in vivo, human; conditions: 20 patients with scar
Description: The subjects consisted of 20 patients with scar, including 7 male and 13 female (average age: 33 years old.) There are five cases with burn scar, 7 cases with scars resulting from accidental injury, 5 cases with surgical scar, 3 cases with scar from skin disease. The average course of disease is about 3 years.
Then the solution was immediately smeared over the scar, once a day for 10-15 days consecutively then stops administration. The second administration began 1-2 months after drug withdrawal of the first administration, once a day for consecutive 5-10 days.
To observe the effects a month after first administration and second administration. The effects were measured according to pain, stiffness and hyperpigmentation around.
specific criteria: obvious pain (+++), moderate pain (++), mild pain (+) no pain (−). stiffness of scar: can't sunken with hard pressing, (+++) can sunken with moderate pressing, (++), complete depression with mild pressing (+). Same character with normal skin (−). hyperpigmentation around: >2 cm, (+++), 1˜2 cm (++), <1 cm (+), 0 (−)
Measurement of clinical effect: excellent: no pain, and the stiffness is the same to normal skin with no hyperpigmentation around. effective: the indicators of pain, stiffness and hyperpigmentation are (+)˜(++); ineffective: one of the indicators of pain, stiffness and hyperpigmentation is (+++).

localized psoriasis = experiment: Localized psoriasis patients, cure and recurrence vs cream control (Example 8); type: in vivo, human
Description: The subjects consisted of 86 patients with localized psoriasis aged from 28 to 68 years old, among which 43 patients were randomly assigned to treatment group, and 43 to control group. The disease broke out continuously with more than nine months of course of disease. The purpose of the clinical test was explained to all subjects and their consent was obtained before conducting the clinical test. Treatment group: 29 male patients (74.36%), 10 female (25.64%); age (49.05±14.57); course of disease (12±9) years. Control group: 28 male patients (68.29%), 13 female patients (31.71%); age (47.05±16.25); course of disease (12±10) years.
The solution was immediately smeared over the affected region, once a day for 10 to 15 days, and then stop administration. If it relapsed, reusing it again. […] If it relapsed, reusing it again. The due time was six months.
The criteria for measuring the effect: Take PASI as reference.
A. The areas: grading from 0 to 6 for the four body parts respectively: area: 0=no rash;
B. Severity of the clinic: erythema; infiltration; scale. Grading each characteristics from 0 to 4 point; 0=no; 1=mild; 2=moderate; 3=severe; 4=extremely severe. Calculating the grades of each parts and working out the total points. The criteria of the effect (PASI decrease percentage): recovery score: ≧95%; excellent score both ≧61% and <95%; improved score both ≧20% and <60%; No effect score<20%.
The example was enumeration data and a Chi-square test was conducted to compare the cure rate and recurrence rate of the two groups.

cartilage of hip joint = experiment: Hip arthritis patients: thickness of cartilage of hip joint by ultrasonic scanning; type: in vivo, human; conditions: listed as activating agent of stem cells comprising a chlorine dioxide; for Medical cartilage thickness mean(±SD): before administration 0.51 (±0.07); for Lateral cartilage thickness mean(±SD): before administration 0.61 (±0.09)
Experimental: To smear the solution over the skin of hip arthritis with swab immediately, once a day for consecutive 20 days. Then stop the administration for three months, and then began continuous treatment for 20 days. Clean and disinfect the regions before treatment, conduct local anesthetic 30 minutes before the operation.
The subjects who joined in the treatment group as volunteers consisted of 11 patients with hip arthritis (5 male, aged from 40 to 70 years old and 6 female, aged from 40 to 65 years old.). Case histories were recorded at the third and the sixth month by collecting personal and data of human body (height, body weight, BMI, blood pressure and heart rate.) Then evaluate the following parameters:
Thickness of cartilage of hip joint: measured by ultrasonic scanning at the core, the center and the lateral.

[1] = test system: rat model of type II diabetes mellitus; experiment: Fasting blood-glucose in rat model of type II diabetes mellitus (Example 10); type: in vivo
Experimental: The rat models of type II diabetes mellitus bought from Department of Medicine of Peking University were divided into group A and B randomly with 10 rats for each group. Group A was treatment group of activating agent of stem cells. Group B was control group of 0.9% sodium chloride of the same volume. The rats of group A were injected with 0.5 ml activating agent of stem cells at insulin injection site on day 0, same dosage of medicine were injected on day 7, day 14; The rats of group B were injected with 0.5 ml NS at hepatic artery at the same point-in-time, then calculate the blood sugar. The fasting blood-glucose of the rat model was checked on day 7, day 14, day 21 and day 28 respectively after the last injection. Table 20 is the results.

[2] = a month after first administration
[3] = a month after second administration
[4] = after 6 months, 43 patients per group
[5] = follow-up average 6 months, 35 treatment, 32 control patients

With [O][Cl+][O-] [chlorine dioxide solution, chlorine dioxide] the “ineffective (%)” value (scar; [2]) was 25%, the “ineffective (No.)” value (scar; [2]) was 5 and the “total efficiency (%)” value (scar; [2]) was 30%. The “total efficiency (No.)” value (scar; [2]) was 6, the “Efficiency rate (No.)” value (scar; a month after first administration, NaClO2 10%/NaCl 2.5% + citric acid 20% 1:1, DMSO 1:1, smeared once a day 10-15 days) was 9 and the “Efficiency rate (%)” value (scar; a month after first administration, topical with DMSO) was 45%. The “Efficiency rate (No.)” value (scar; a month after second administration (once a day 5-10 days, 1-2 months after the first)) was 15, the “Efficiency rate (%)” value (scar; [3]) was 75% and the “ineffective (No.)” value (scar; [3]) was 0. The “total efficiency (%)” value (scar; [3]) was 25%, the “total efficiency (No.)” value (scar; [3]) was 5 and the No. effective patients (localized psoriasis; [4]) was 0 (0) ^. For the same compound, the No. ineffective patients (localized psoriasis; [4]) was 0 (0), the effective patients percentage (localized psoriasis; [4]) was 0 (0) ^ % and the “improvement Percentage” value (localized psoriasis; [4]) was 4.6%. For the same compound, the ineffective patients percentage (localized psoriasis; [4]) was 0 (0) %, the “No. Cure” value (localized psoriasis; after 6 months, 43 patients per group, smeared once a day 10 to 15 days, repeated on relapse, at most three treatments, test solution NaClO2 10%/NaCl 2.5% + citric acid 22% 1:1, PASI-based) was 41 and the “Cure Percentage” value (localized psoriasis; after 6 months, 43 patients per group, topical once a day 10 to 15 days, repeated on relapse, P<0.01 between groups) was 95.3%. The “No. non recurrence patients” value (localized psoriasis; [5]) was 33, the “non recurrence patients percentage” value (localized psoriasis; [5]) was 94.3% and the No. recurrence patients (localized psoriasis; follow-up average 6 months, 35 treatment, 32 control patients followed) was 2. For the same compound, the “recurrence patients percentage (recurrence rate)” value (localized psoriasis; follow-up average 6 months, 35 treatment, 32 control patients, P<0.01 between groups) was 5.7%, the “Medical cartilage thickness mean(±SD)” value (cartilage of hip joint; sixth month) was 0.66 (±0.16) mm and the “Lateral cartilage thickness mean(±SD)” value (cartilage of hip joint; sixth month) was 0.73 (±0.11) mm. The “Central cartilage thickness mean (±SD)” value (cartilage of hip joint; sixth month, before administration 0.73 (±0.09)) was 0.89 (±0.09) mm, the “Central cartilage thickness, percentage increase” value (cartilage of hip joint; sixth month) was 12.7% and the “Lateral cartilage thickness, percentage increase” value (cartilage of hip joint; sixth month) was 8.9%. For the same compound, the “Medical cartilage thickness, percentage increase” value (cartilage of hip joint; sixth month) was 11.9%, the “Medical cartilage thickness mean(±SD)” value (cartilage of hip joint; third month, ultrasound, 11 hip arthritis patients, topical with DMSO) was 0.59 (±0.08) mm and the “Lateral cartilage thickness mean(±SD)” value (cartilage of hip joint; third month) was 0.67 (±0.10) mm. The “Central cartilage thickness, percentage increase” value (cartilage of hip joint; third month) was 8.2%, the “Lateral cartilage thickness, percentage increase” value (cartilage of hip joint; third month) was 9.8% and the “Medical cartilage thickness, percentage increase” value (cartilage of hip joint; third month) was 15.6%. For the same compound, the “MBG (fasting blood-glucose), ±SD” value ([1]; Day 7 after administration, Group A n=10, Day 0 17.3 ± 0.4, NS group 18.3 ± 2.4, NaClO2 4%/NaCl 1% + citric acid 8% 1:1, 0.5 ml injected day 0, 7, 14) was 9.3 ± 3.5 mmol/L, the “MBG (fasting blood-glucose), ±SD” value ([1]; Day 14 after administration, Day 0 17.3 ± 0.4, NS group 17.2 ± 1.6, 0.5 ml injected day 0, 7, 14) was 4.3 ± 1.1 mmol/L and the “MBG (fasting blood-glucose), ±SD” value ([1]; Day 28 after administration, Day 0 17.3 ± 0.4, NS group 17.9 ± 2.3, 0.5 ml injected day 0, 7, 14) was 3.1 ± 1.2 mmol/L. The “FBG levels of rats in treatment group” value ([1]; control group remains unchanged) was “become normal after 14 days”, the side effects ([1]; rat model of type II diabetes mellitus) was “few or no side effects” and the “MBG (fasting blood-glucose), ±SD” value ([1]; rat, in vivo) was 3.5 ± 1.3 mmol/L.

Source: patent US20150335678A1, “METHOD OF ACTIVATING STEM CELLS IN AN ANIMAL AND THE USE OF CHLORINE DIOXIDE FOR PREPARING MEDICINES FOR ACTIVATING STEM CELLS IN AN ANIMAL” (priority 2012, published 2015)
